Several values for one entry are separate records, joined by “and”; a condition that tells them apart may be missing. Equal values may be shown once.
What was measured:
Type in all cases: in vivo
corn seed Variety 1 = assay: Internal concentration of glycine-betaine (mg/kg) in corn seed, Variety 1 female lines; conditions: for Percentage increase in internal GB concentration: versus plants treated with water
Experimental: (§1) To prevent auto-fertilization during the corn seed production, the male reproductive parts of the female line were removed prior to the time of pollen shed.
(§2) The commercial Greenstim® (Lallemand) formulation was sprayed to the female line leaves during grain development stage at the equivalent of 4 kg/hectare. Each repetition consists of 18 plants. Control plants were treated with water.
(§3) Seeds (200) were collected at maturity. Seeds were ground using a ball mill and extracted with ethanol. Samples were evaporated to dryness and dissolved in deuterium oxide (D20) (50 mg/ml). 1H-NMR analysis (Bruker, at 500 MHz) was performed using 3-(trimethylsilyl)-1-propane sulfonate sodium salt (DSS) as the internal standard. Values in ppm assigned to NMR signals are chemical shifts of the 9 protons which give the signal, for the glycine-betaine, at 3.251 ppm. A total of three extractions were performed on each sample.

corn seed = assay: Effect of cold temperature on corn seed germination
Experimental: Two hundred seeds of each treatment (plants treated with water and plants treated with glycine-betaine) were planted onto moistened sand. Samples were placed into a germination chamber at 10° C. for a period of 7 days. Samples were then transferred to a germination chamber set to 25° C. for 5 days. The experiment was conducted with a variety of seeds with increased cold tolerance compared to more traditional seed varieties. The germination rate of standard seeds after a cold germination test is between 50 to 70%.

[1] = system: corn seeds of the variety Casey; assay: Internal glycine-betaine concentration in corn seeds after foliar application, variety Casey (field trial, 1H-NMR); conditions: Greenstim sprayed on female line leaves at grain development stage, 4 kg/hectare, seeds collected at maturity, Rep 1-3, letter b differs from water control (p < 0.05)
Experimental: (§4) The field trial was performed with two different varieties of corn: the LG 32.58 variety and the Casey variety.
as §1, §2, §3

[2] = system: corn seeds of the variety LG 32.58; assay: Internal glycine-betaine concentration in corn seeds after foliar application, variety LG 32.58 (field trial, 1H-NMR)
Experimental: as §4, §1
[…] Each repetition consists of 18 plants. Control plants were treated with water.
as §3

## C[N+](C)(C)CC(=O)[O-] [GB, N,N,N-trimethylglycine]
Corn seed Variety 1; Variety 1-female 1, Rep 1
  Internal concentration of glycine-betaine in corn seed, Mean GB (plants treated with GB): 6.67 mg/kg
  Percentage increase in internal GB concentration: 53%
Corn seed Variety 1; Variety 1-female 2, Rep 2
  Internal concentration of glycine-betaine in corn seed, Mean GB (plants treated with GB): 5.19 mg/kg
  Percentage increase in internal GB concentration: 1135%
Corn seed Variety 1; Variety 1-female 3, Rep 3
  Internal concentration of glycine-betaine in corn seed, Mean GB (plants treated with GB): 6.89 mg/kg
  Percentage increase in internal GB concentration: 15%
Corn seed; Variety-female 3, 200 seeds on moistened sand, 10° C. for 7 days then 25° C. for 5 days
  Seed germination percentage (plants treated with GB): 86.61
Corn seed; Variety-female 3, after cold treatment, versus seeds from plants treated with water
  Percentage increase in germination: 2.1%
Corn seed; summary of Table 5, seeds with increased internal content of glycine-betaine
  Seed germination percentage after cold treatment compared with untreated seeds: significantly better seed germination percentage
[1]
  GB concentration, GB (plants treated with GB): 79.19b μg · g^−1 MS and 79.33b μg · g^−1 MS and 83.91b μg · g^−1 MS
[2]; corn variety LG 32.58, Greenstim sprayed on female line leaves at grain development stage, 4 kg/hectare, seeds collected at maturity, Rep 1-3, letter b differs from water control (p < 0.05)
  GB concentration, GB (plants treated with GB): 41.18b μg · g^−1 MS and 37.71b μg · g^−1 MS and 38.53b μg · g^−1 MS
[2]; summary of Tables 1 to 4, plants sprayed at the flowering stage
  Internal glycine-betaine content of the seeds compared to untreated seeds: significantly higher

Reference: patent publication US20210169077A1, “METHOD FOR IMPROVING SEED GERMINATION AND/OR PLANT TOLERANCE TO ENVIRONMENTAL STRESS” (DANSTAR FERMENT AG, priority 2017, published 2021)
